These are literature values, as cited in patent US20050227989A1, “Polycyclic thiazoles as potassium ion channel modulators” (ICAgen, Inc., priority 2004, published 2005).

The target in the first series is SK2 subtype channels (Rattus norvegicus, UniProt P70604). Conditions: patch clamp; cited from earlier work. (Patch clamp records ionic current or voltage across a cell membrane.)
As to `CN(C)CCC=C1c2ccccc2CCc2ccccc21` [amitriptyline], the “block of SK2 channel currents” value is reported as “block SK2 channel currents with micromolar affinity”.
Regarding `NC(=O)N1c2ccccc2C=Cc2ccccc21` [carbamazepine], the “block of SK2 channel currents” value was “block SK2 channel currents with micromolar affinity”.
As to `CN(C)CCCN1c2ccccc2Sc2ccc(Cl)cc21` [chlorpromazine], the “block of SK2 channel currents” value was “block SK2 channel currents with micromolar affinity”.
As for `Nc1c2c(nc3ccccc13)CCCC2` [tacrine], the “block of SK2 channel currents” value is “block SK2 channel currents with micromolar affinity”.

For a further series, the target named is T1, recombinant human SK4 (hIK1 or hKCa4) channels (Homo sapiens, UniProt O15554+P0DP23).
T1 construct: host or cells: HEK 293
Conditions: applied to the inside of SK4 channel-expressing membrane patches; cited from earlier work.
Take `[Fe]` [iron]: the “activation of SK4 channels” value is given as “did not activate”.
Turning to `[Pb+2]` [lead], the “activation of SK4 channels” value is “activated SK4 channels in a concentration-dependent manner”.
Turning to `[Mg+2]` [magnesium], the “activation of SK4 channels” value is recorded as “did not activate”.
As to `[Sr+2]` [strontium], the “activation of SK4 channels” value was “activated SK4 channels in a concentration-dependent manner”.
As to `[Zn+2]` [zinc], the “activation of SK4 channels” value is on record as “did not activate”.
